The text below walks through data of patent US8163935B2, “Fused heterocyclic compounds” (Takeda Pharmaceutical Company Limited, priority 2005, dated 2012).

The target of one data set is T1, human CRF receptor (Homo sapiens, UniProt P34998).
T1 construct: expressed in transfected cells; host or cells: CHO cells (membrane fraction)
T1 sequence (P34998 24-415): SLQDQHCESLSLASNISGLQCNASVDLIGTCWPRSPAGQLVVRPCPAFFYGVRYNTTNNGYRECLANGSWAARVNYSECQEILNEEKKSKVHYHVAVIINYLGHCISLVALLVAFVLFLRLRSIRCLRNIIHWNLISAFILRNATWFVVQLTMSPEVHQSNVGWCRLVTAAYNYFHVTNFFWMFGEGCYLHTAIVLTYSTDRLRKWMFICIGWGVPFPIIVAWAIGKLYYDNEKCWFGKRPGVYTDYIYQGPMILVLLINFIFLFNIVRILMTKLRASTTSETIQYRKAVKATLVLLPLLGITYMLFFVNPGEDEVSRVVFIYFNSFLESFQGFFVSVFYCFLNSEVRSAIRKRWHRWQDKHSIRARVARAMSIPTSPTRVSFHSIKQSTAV
Description: Corticotropin-releasing factor (CRF) receptor binding experiment with 125I-CRF. The conditions noted are these: human CRF receptor expressing CHO cellular membrane fraction; for inhibition at 1 µM: 1000 nM test compound, 50 pM 125I-CRF, read-out: Binding inhibitory rate (%) 1000 nM; for IC50: 125I-CRF, GraphPad Prism. Here is the method:
A receptor binding experiment was carried out using a human CRF receptor expressing CHO cellular membrane fraction and ovine CRF, [^125I]-tyr^0 (^125I-CRF). 1000 nM of a test compound was incubated with 1 μg of human CRF receptor expressing CHO cellular membrane fraction and 50 pM of ^125I-CRF in a binding assay buffer (50 mM Tris-HCl, 5 mM EDTA, 10 mM MgCl2, 0.05% CHAPS, 0.1% BSA, 0.5 mM PMSF, 0.1 μg/ml pepstatin, 20 μg/ml leupeptin, pH 7.5). In addition, for measuring nonspecific binding (NSB), 0.1 μM unlabelled human Urocortin was incubated with 1 μg of human CRF receptor expressing CHO cellular membrane fraction and 50 pM of ^125I-CRF in a binding assay buffer. After a binding reaction was carried out at room temperature for 1.5 hour, the membrane was entrapped on a glass filter (UniFilter plate GF-C/Perkin Elmer) by suction filtration using a cell harvester (Perkin Elmer), and washed with ice-cooled 50 mM Tris-HCl (pH 7.5). After drying the glass filter, a liquid scintillation cocktail (Microscinti 0, Perkin Elmer) was added, and the radioactivity of ^125I-CRF remaining on a glass filter was measured using Topcount (Perkin Elmer).
(TB−SB)/(TB−NSB)×100 (SB: radioactivity when a compound is added, TB: maximum binding radioactivity, NSB: nonspecific binding radioactivity) was calculated to obtain a binding inhibitory rate under the presence of 1,000 nM of each test substances. The IC50 values were calculated by using GraphPad Prism software.

Where a name gives a salt, the structure may show the parent alone.

The IC50 is the midpoint of a concentration-inhibition curve. What is called melting point is the temperature of the solid-liquid transition.

As for `CCCC(CCC)c1cccc2nc(Nc3c(C)cc(Br)cc3OC)n(C)c12` [Example 1, N-(4-Bromo-2-methoxy-6-methylphenyl)-1-methyl-7-(1-propylbutyl)-1H-benzimidazol-2-amine Hydrochloride], at human CRF receptor, the inhibition at 1 µM was over 80%.

Turning to `CCCC(CC)c1nccc2nc(Nc3c(C)cc(Br)cc3OC)n(C)c12` (stereo not shown) [Example 9, N-(4-Bromo-2-methoxy-6-methylphenyl)-4-(1-ethylbutyl)-3-methyl-3H-imidazo[4,5-c]pyridin-2-amine], the inhibition at 1 µM at human CRF receptor was over 80%.

`CCc1ccccc1-c1cccc2nc(Nc3c(C)cc(Cl)cc3OC)n(C)c12` [Example 15, N-(4-Chloro-2-methoxy-6-methylphenyl)-7-(2-ethylphenyl)-1-methyl-1H-benzimidazol-2-amine]: the IC50 on human CRF receptor was in the range of 0.01 to 0.05 µM.

As for `CNCc1ccccc1-c1cccc2nc(Nc3c(C)cc(Cl)cc3OC)n(C)c12` [Example 64, N-(4-Chloro-2-methoxy-6-methylphenyl)-1-methyl-7-{2-[(methylamino)methyl]phenyl}-1H-benzimidazol-2-amine], the inhibition at 1 µM at human CRF receptor was over 80%.

In turn, `CCc1cc(CC)n(-c2cccc3nc(Nc4c(C)cc(Br)cc4OC)n(C)c23)n1` [Example 66, N-(4-Bromo-2-methoxy-6-methylphenyl)-7-(3,5-diethyl-1H-pyrazol-1-yl)-1-methyl-1H-benzimidazol-2-amine] returned an IC50 on human CRF receptor of 0.01 to 0.05 µM.

Take `COc1cc(Br)cc(C)c1Nc1nc2cccc(-n3c(C)ccc3C)c2n1C` [Example 69, N-(4-Bromo-2-methoxy-6-methylphenyl)-7-(2,5-dimethyl-1H-pyrrol-1-yl)-1-methyl-1H-benzimidazol-2-amine]: the inhibition at 1 µM at human CRF receptor is over 80%.

Compound `CCC(CC)c1ccc(Cl)c2nc(Nc3c(C)cc(Br)cc3OC)n(C)c12` [Example 77, N-(4-Bromo-2-methoxy-6-methylphenyl)-4-chloro-7-(1-ethylpropyl)-1-methyl-1H-benzimidazol-2-amine] registered a melting point of 218 to 220 °C. At human CRF receptor, the inhibition at 1 µM was over 80% and the IC50 was in the range of 0.01 to 0.05 µM.

The compound `CCC(CC)c1ccc(Cl)c2nc(Nc3ccc(Cl)cc3Br)n(C)c12` [Example 84, N-(2-Bromo-4-chlorophenyl)-4-chloro-7-(1-ethylpropyl)-1-methyl-1H-benzimidazol-2-amine] had a melting point of 136 to 138 °C. In addition, the inhibition at 1 µM at human CRF receptor is over 80%.

In the case of `CCC(CC)c1ccc(C)c2nc(Nc3c(C)cc(Cl)cc3OC)n(C)c12` [Example 101, N-(4-Chloro-2-methoxy-6-methylphenyl)-7-(1-ethylpropyl)-1,4-dimethyl-1H-benzimidazol-2-amine], at human CRF receptor, the inhibition at 1 µM was over 80% and the IC50 was under 0.01 µM.

As to `CCC(CC)c1ccc(Cl)c2nc(Nc3c(C)cc(Cl)cc3OC)n(CCO)c12` [Example 103, 2-[4-Chloro-2-[(4-chloro-2-methoxy-6-methylphenyl)amino]-7-(1-ethylpropyl)-1H-benzimidazol-1-yl]ethanol], at human CRF receptor, the inhibition at 1 µM is over 80%.

For the compound `CCC(CC)c1ccc(OC)c2nc(Oc3c(C)cc(Cl)cc3Cl)n(C)c12` [Example 145, 2-(2,4-Dichloro-6-methylphenoxy)-7-(1-ethylpropyl)-4-methoxy-1-methyl-1H-benzimidazole], the melting point was in the range of 130 to 131 °C. At human CRF receptor, this compound yielded an IC50 of under 0.01 µM.
